In article PMC8398451, “Molecular Engineering of Curcumin, an Active Constituent of Curcuma longa L. (Turmeric) of the Family Zingiberaceae with Improved Antiproliferative Activity” (Plants, 2021):
Where two headings read alike, the source gives them in different places.

How the values were obtained:
60 NCI cancer cell lines = assay: NCI antiproliferative assay, summary over all lines; format: cell-based; conditions: for Mean % GI / Mean GP: mean over cell lines, one dose 10 µM; for GI50: Homo sapiens, 5-dose assay
A498 = assay: NCI antiproliferative SRB assay, Renal Cancer panel; format: cell-based, Human; conditions: for %GI / GP (growth percent): one dose 10 µM
IGROV1 = assay: NCI antiproliferative SRB assay, Ovarian Cancer panel; format: cell-based, Human; conditions: for %GI / GP (growth percent): one dose 10 µM
SK-OV-3 = assay: as above; format: cell-based, Human; conditions: for %GI / GP (growth percent): one dose 10 µM
[1] = test system: Prostate Cancer cell line panel; assay: NCI antiproliferative assay, panel summary; format: cell-based, Human; conditions: for Mean % GI: 10 µM
NCI-H23 = assay: NCI antiproliferative SRB assay, Non-Small Cell Lung Cancer panel; format: cell-based, Human; conditions: for %GI / GP (growth percent): one dose 10 µM
A549/ATCC = assay: as above; format: cell-based, Human; conditions: for %GI / GP (growth percent): one dose 10 µM
SR = assay: NCI antiproliferative SRB assay, Leukemia panel; format: cell-based, Human; conditions: for %GI / GP (growth percent): one dose 10 µM
MDA-MB-468 = assay: NCI antiproliferative SRB assay, Breast Cancer panel; format: cell-based, Human; conditions: for %GI / GP (growth percent): one dose 10 µM
Description: The antiproliferative activity of tested compounds was done against five dozen (60) cancer cell lines derived from nine different panels. All of the compounds were evaluated for antiproliferative activity in a single dose at 10 µM. Growth percent (GP) and percent growth inhibition (% GI) were used to calculate antiproliferative activity. […] The antiproliferative results of five-dose assay were calculated as three dose related parameters like, 50% growth inhibition (GI50), 50% lethal concentration (LC50), and total growth inhibition TGI [43, 44, 45, 46, 47].
Human tumor cell lines were grown in RPMI 1640 medium containing 5% fetal bovine serum and 2 mM L-glutamine. For a typical screening experiment, cells were inoculated into 96-well microtiter plates in 100 µL at plating densities ranging from 5000 to 40,000 cells/well, depending on the doubling time of individual cell lines. Two plates of each cell line were fixed in situ with trichloroacetic acid (TCA) after 24 h to represent a cell population measurement for each cell line at the time of drug addition (Ti). The experimental drugs were frozen after being solubilized in dimethyl sulfoxide at 400-fold the desired final maximum test concentration. An aliquot of frozen concentrate was thawed and diluted to twice the desired final maximum test concentration with medium containing 50 µg/mL gentamicin at the time of drug addition. Additional four, 10-fold, or ½ log serial dilutions serial dilutions were performed to provide a total of five drug concentrations plus the control. Aliquots of 100 µL of these different drug dilutions were added to the appropriate microtiter wells already containing 100 µL of medium, resulting in the required final drug concentrations. Following drug addition, the plates are incubated for an additional 48 h at 37 °C, 5% CO2, 95% air, and 100% relative humidity. For adherent cells, the assay is terminated by the addition of cold TCA. Cells are fixed in situ by the gentle addition of 50 µL of cold 50% (w/v) TCA (final concentration, 10% TCA) and incubated for 60 min at 4 °C. The supernatant is discarded, and the plates are washed five times with tap water and air dried. Sulforhodamine B (SRB) solution (100 µL) at 0.4% (w/v) in 1% acetic acid was added to each well, and plates were incubated for 10 min at room temperature. After staining, unbound dye was removed by washing five times with 1% acetic acid and the plates were air dried. Bound stain was subsequently solubilized with 10 mM trizma base, and the absorbance was read on an automated plate reader at a wavelength of 515 nm. For suspension cells, the methodology was the same except that the assay was terminated by fixing settled cells at the bottom of the wells by gently adding 50 µL of 80% TCA (final concentration, 16% TCA). […]
Antiproliferative activity
The anticancer screening was carried ou t as per the NCI US protocol. Using the seven absorbance measurements (time zero, (Ti), control growth, (C), and test growth in the presence of drug at the five concentration levels (Tf)), the percentage growth was calculated at each of the drug concentrations level as [( Tf−Ti × 100 for concentrations for which Tf ≥ Ti, and Tf−Ti × 100 for […]
concentrations for which Tf < Ti.
Three-dose response parameters (GI50, TGI, and LC50) were calculated for each of the experimental agents. Growth inhibition of 50% (GI50) was calculated from 100 × Tf−Ti = 50, , which was […]
the drug concentration resulting in a 50% reduction in the net protein increase (as measured by sulforhodamine B, SRB staining) in control cells during the drug incubation. The total growth inhibition (TGI) was calculated from Tf = Ti, which was the drug concentration resulting in total growth inhibition and signified the cytostatic effect. The LC50 was calculated from 100 × Tf−Ti = −50, , indicating a net loss […]
of cells following treatment which indicated the concentration of drug resulting in a 50% reduction in the […]

[2] = test system: Colon Cancer cell line panel; assay: NCI antiproliferative assay, panel summary; format: cell-based, Human; conditions: for Mean % GI: 10 µM
HCT-116 = assay: NCI antiproliferative SRB assay, Colon Cancer panel; format: cell-based, Human; conditions: for %GI / GP (growth percent): one dose 10 µM
KM12 = assay: as above; format: cell-based, Human; conditions: for %GI / GP (growth percent): one dose 10 µM
Melanoma cell line panel = assay: NCI antiproliferative assay, panel summary; format: cell-based, Human; conditions: for Mean % GI: 10 µM
HCC-2998 = assay: NCI antiproliferative SRB assay, Colon Cancer panel; format: cell-based, Human; conditions: for %GI / GP (growth percent): one dose 10 µM
NCI-H322M = assay: NCI antiproliferative SRB assay, Non-Small Cell Lung Cancer panel; format: cell-based, Human; conditions: for %GI / GP (growth percent): one dose 10 µM
SNB-19 = assay: NCI antiproliferative SRB assay, CNS Cancer panel; format: cell-based, Human; conditions: for %GI / GP (growth percent): one dose 10 µM
[3] = Homo sapiens, 5-dose 0.01-100 µM
[4] = Homo sapiens, 5-dose 0.01-100 µM, read-out: LC50 (the source's name)
[5] = Homo sapiens, 5-dose assay, read-out: Sub Panel MID b (mean GI50 of panel)

## COc1ccc(/C=C/c2cc(/C=C/c3ccc(OC)c(O)c3)n(-c3cccc(Cl)c3)c(=S)n2)cc1O [3a]
60 NCI cancer cell lines
  Mean % GI: 17.68%
  Mean GP: 82.32
A498
  %GI: −4.38%
  GP (growth percent): 104.38
IGROV1
  %GI: 4.74%
  GP (growth percent): 95.26
SK-OV-3
  %GI: −0.88%
  GP (growth percent): 100.88
[1]
  Mean % GI: 14.98%
NCI-H23
  %GI: 9.05%
  GP (growth percent): 90.95
A549/ATCC
  %GI: 27.44%
  GP (growth percent): 72.56
SR
  %GI: 51.28%
  GP (growth percent): 48.72
MDA-MB-468; MDA-MB-468
  %GI: 16.19%
  GP (growth percent): 83.81
[2]
  Mean % GI: 16.72%
HCT-116
  %GI: 38.12%
  GP (growth percent): 61.88
KM12
  %GI: 19.67%
  GP (growth percent): 80.33
Melanoma cell line panel
  Mean % GI: 17.21%
HCC-2998
  %GI: −3.70%
  GP (growth percent): 103.70
NCI-H322M
  %GI: 8.07%
  GP (growth percent): 91.93
SNB-19
  %GI: 15.45%
  GP (growth percent): 84.55

## COc1cc(/C=C/c2cc(/C=C/c3ccc(O)c(OC)c3)n(C(=O)Nc3ccc(C(F)(F)F)cc3)n2)ccc1O [3c]
60 NCI cancer cell lines; read-out: GI50 values, range over cell lines
  GI50: 1.48 to 7.29 µM
60 NCI cancer cell lines; read-out: MID a (mean GI50 of 60 NCI cancer cell lines)
  GI50: 2.84 µM
60 NCI cancer cell lines
  Mean % GI: 59.26%
  Mean GP: 40.74
A498; [3]
  GI50: 5.81 µM
A498; [4]
  CC50: 57.3 µM
A498
  %GI: -8.03%
  GP (growth percent): 108.03
IGROV1; 5-dose 0.01-100 µM
  TGI: 11.6 µM
IGROV1; Homo sapiens, IGROV-1, 5-dose 0.01-100 µM
  GI50: 2.77 µM
IGROV1; Homo sapiens, IGROV-1, 5-dose 0.01-100 µM, read-out: LC50 (the source's name)
  CC50: > 100 µM
IGROV1
  %GI: 57.18%
  GP (growth percent): 42.82
SK-OV-3; 5-dose 0.01-100 µM
  TGI: 66.7 µM
SK-OV-3; [3]
  GI50: 4.02 µM
SK-OV-3; [4]
  CC50: > 100 µM
SK-OV-3
  %GI: 33.91%
  GP (growth percent): 66.09
[1]
  Mean % GI: 57.21%
[1]; 5-dose assay
  Selectivity Ratio (MID a:MID b): 0.82
[1]; [5]
  GI50: 3.44 µM
NCI-H23; 5-dose 0.01-100 µM
  TGI: 6.48 µM
NCI-H23; [3]
  GI50: 2.13 µM
NCI-H23; [4]
  CC50: > 100 µM
NCI-H23
  %GI: 48.71%
  GP (growth percent): 51.29
A549/ATCC; 5-dose 0.01-100 µM
  TGI: >100 µM
A549/ATCC; [3]
  GI50: 4.11 µM
  LC50 (50% lethal concentration): > 100 µM
A549/ATCC
  %GI: 57.05%
  GP (growth percent): 42.95
SR; 5-dose 0.01-100 µM
  TGI: >100 µM
SR; [3]
  GI50: 1.48 µM
SR; [4]
  CC50: > 100 µM
SR
  %GI: 86.79%
  GP (growth percent): 13.21
MDA-MB-468; Homo sapiens, MDA-MB-468, read-out: LC50
  LC50 (50% lethal concentration): > 100 µM
MDA-MB-468; Homo sapiens, MDA-MB-468, 5-dose 0.01-100 µM
  GI50: 2.3 µM
MDA-MB-468; MDA-MB-468, 5-dose 0.01-100 µM
  TGI: 6.25 µM
MDA-MB-468; MDA-MB-468
  %GI: 56.21%
  GP (growth percent): 43.79
[2]
  Mean % GI: 73.05%
[2]; 5-dose assay
  Selectivity Ratio (MID a:MID b): 1.31
[2]; [5]
  GI50: 2.17 µM
HCT-116; 5-dose 0.01-100 µM
  TGI: 2.94 µM
HCT-116; [3]
  GI50: 1.51 µM
HCT-116; [4]
  CC50: 5.7 µM
HCT-116
  %GI: 153.67%
  GP (growth percent): −53.67
KM12; 5-dose 0.01-100 µM
  TGI: 5.59 µM
KM12; [3]
  GI50: 2.33 µM
KM12; [4]
  CC50: 54 µM
KM12
  %GI: 58.62%
  GP (growth percent): 41.38
Melanoma cell line panel
  Mean % GI: 60.81%
Melanoma cell line panel; [5]
  GI50: 2.51 µM
HCC-2998; 5-dose 0.01-100 µM
  TGI: 3.82 µM
HCC-2998; [3]
  GI50: 2.04 µM
HCC-2998; [4]
  CC50: 71.2 µM
HCC-2998
  %GI: −2.63%
  GP (growth percent): 102.63
NCI-H322M; 5-dose 0.01-100 µM
  TGI: 12.9 µM
NCI-H322M; [3]
  GI50: 3.25 µM
NCI-H322M; [4]
  CC50: 49.6 µM
NCI-H322M
  %GI: 17.30%
  GP (growth percent): 82.70
SNB-19; 5-dose 0.01-100 µM
  TGI: 11.2 µM
SNB-19; [3]
  GI50: 3.16 µM
SNB-19; [4]
  CC50: 36.9 µM
SNB-19
  %GI: 51.32%
  GP (growth percent): 48.68
